# Data published in patent publication US20100076059A1, “METHOD OF EVALUATING COMPOUND EFFICACIOUS IN TREATING OBESITY BY USING Slc25a10” (priority 2003, published 2010).
# Where no end group is shown, it is not given here.
# Experiments:
# mouse S1c25a10 gene = test: Suppression of mouse S1c25a10 expression by siRNA transfection (RNAi); assay type: cell-based; conditions: siRNA to mouse S1c25a10 gene
# Excerpt: (§1) First, a silencer siRNA construction kit (Ambion Inc.) was used to synthesize siRNA. Next, in order to determine the optimum sequences for human or mouse S1c25a10, twelve different sequences were examined based on suppression of S1c25a10 expression. FIG. 6(a) and (b) show the relative expression levels of S1c25a10 gene in each of the siRNA-transfected cells.
# The nucleotide sequences of siRNA corresponding to the mouse S1c25a10 gene (NM_013770) are also shown below.
# human S1c25a10 gene = test: Suppression of human S1c25a10 expression by siRNA transfection (RNAi); assay type: cell-based; conditions: siRNA to human S1c25a10 gene
# Excerpt: as §1
# The sequence of each siRNA is shown below. The “Position” indicates the corresponding nucleic acid position of the human S1c25a10 gene (NM_012140) for each siRNA.
# Next, siRNA-transfected cells were prepared. For siRNA transfection, the cells were seeded on a 6-well plate at a density of 2×10^4 cells/well. After 24 hours, the siRNA (H4 or H10) was transfected into the cells using Oligofectamine (Invitrogen). On the 2nd day after transfection, the cells were harvested and RNA was prepared using RNeasy (Qiagen). cDNA was prepared from the RNA by quantitative RT-PCR (Applied Biosystems), for quantitation of the S1c25a10 and ACC1 expression levels.
# HEK293 cells = test: DiOC6 staining of mitochondrial proton gradient in HEK293 cells; assay type: cell-based; conditions: DiOC6-stained HEK293 cells
# Method: First, HEK293 cells were seeded in a 6-well plate at a density of 2×10^6 cells/well. After 24 hours, S1c25a10 gene cloned in pcDNA 3.1 vector was transfected into the cells using Lipofectamine 2000. As a negative control there were used cells having only the vector transfected, and as positive controls there were used cells having mouse UCP1 transfected and cells having human UCP3 transfected.
# After 48 hours from transfection of the gene, the mitochondrial gradient sensitivity-indicating agent DiOC6 (3-3′-dihexyloxacarbocyanine iodide) was used for staining. The staining was performed by treating the cells with 0.3 μM DiOC6 for 20 minutes followed by rinsing twice with PBS. DiOC6 binds to mitochondria in greater amount as the proton gradient increases, emitting strong fluorescence. On the other hand, it binds to mitochondria in lower amount as the proton gradient decreases, resulting in weaker fluorescent intensity.
# FIG. 1(a) is a confocal micrograph showing DiOC6-stained HEK293 cells treated with CCCP (carbonyl cyanide m-chlorophenylhydrazone) which uncouples the intracellular mitochondrial proton gradient, and FIG. 1(b) is a photograph of HEK293 cells without CCCP treatment. With the untreated HEK293 cells, the intracellular mitochondria are clearly stained by outlining dots. […] It was thus confirmed that the mitochondria had been stained in a proton gradient-specific manner. […]
# S1c25a10 gene = test: S1c25a10 expression in white adipocytes (WAT) of mouse models, U74A / 25K1.8 chip; assay type: in vivo; conditions: non-treated C57BL/6N mice defined as 1
# Method: (§2) A mouse model of obesity induced by administration of an NPY Y5 agonist was prepared in the following manner. Nine- to twelve-week-old male mice (C57BL/6J: Clea Japan) were raised under conditions with a room temperature of 23±2° C. and a humidity of 55±15%, with one mouse in each plastic cage. The mice were raised under a 12 hour lightness/darkness cycle, with lights on at 7:00 am and lights off at 7:00 pm. The mice were also given free access to feed (CE-2 (25.4 wt % protein, 50.3 wt % carbohydrate, 4.4 wt % lipid), Clea Japan) and water.
# The mice were anesthetized with 80 mg/kg sodium pentobarbital (Dynabot) and a 28-gauge sterilized brain infusion cannula (Alzet Co.) was stereotactically implanted in the right cerebral ventricle. The cannula was positioned 0.4 mm behind and 0.8 mm to the side of the bregma, and to a depth of 2 mm, and was anchored vertically with respect to the cranial bone using dental cement. A polyvinyl chloride tube was used to connect the cannula to an osmotic pump (Model #2002: Alzet Co.) filled with 10 mM phosphate buffer containing 0.05% bovine serum albumin (BSA). A solution of D-Try^34 NPY in 10 mM PBS (containing 0.05% BSA) (prepared for 5 μg/day) was filled into the pump, and the pump was implanted subcutaneously at the back of the mouse for continuous infusion. An antibiotic (50 mg/kg cefamedine, product of Fujisawa Pharmaceutical Co., Ltd.) was also subcutaneously injected.
# The mice were divided into three groups: a normally-fed group given infusion of the solvent alone (vehicle group); an obesity-induced group given infusion of D-Try^34 NPY (NYP Y5 agonist) with an increased food amount (ad lib fed group); and a group given infusion of D-Try^34 NPY but with food restricted to the same amount as the vehicle group (pair-fed group).
# as §2, with “MCH (melanin-concentrating hormone)” for “an NPY Y5 agonist”, “Thirteen-week-old” for “Nine- to twelve-week-old”, “food” for “feed”, “water. […]” for “water.”
# The mouse models prepared in Preparation Examples 1-4 were used for measurement of S1c25a10 expression in white adipocytes (WAT). The expression levels were measured by treating RNA extracted from white adipocytes from each mouse model using a mouse U74A chip (Affymetrix) and a mouse 25K1.8 chip (Rossetta).
# [1] = administered mice, ad lib fed (FF)
compound,measurement,setting,value
"M8: siRNA to mouse S1c25a10 gene, Position 1159, SEQ ID NOs: 41 and 42 (chain 1 AAGTGGCACCTCTGCCCTACTCCTGTCTC; chain 2 AAAGTAGGGCAGAGGTGCCACCCTGTCTC; listed as DNA, chemistry not given here)",S1c25a10 gene expression (inhibiting effect),mouse S1c25a10 gene,particularly powerful inhibiting effects
same,S1c25a10 gene expression (inhibiting effect),mouse S1c25a10 gene; listed as siRNA consisting of nucleic acids of SEQ ID NOs: 41 and 42,powerfully inhibit S1c25a10 expression
same,S1c25a10 gene expression (inhibiting effect),mouse S1c25a10 gene; listed as siRNA consisting of the nucleic acids of SEQ ID NOs: 41 and 42,significantly reduce expression
"H4: siRNA to human S1c25a10 gene, Position 556, SEQ ID NOs: 9 and 10 (chain 1 AAACAGTCTCCTGAGACCCTCCCTGTCTC; chain 2 AAGAGGGTCTCAGGAGACTGTCCTGTCTC; listed as DNA, chemistry not given here)",S1c25a10 gene expression (inhibiting effect),human S1c25a10 gene,particularly powerful inhibiting effects
same,S1c25a10 gene expression (inhibiting effect),human S1c25a10 gene; listed as siRNA consisting of nucleic acids of SEQ ID NOs: 9 and 10,powerfully inhibit S1c25a10 expression
same,S1c25a10 gene expression (inhibiting effect),human S1c25a10 gene; listed as siRNA consisting of the nucleic acids of SEQ ID NOs: 9 and 10,significantly reduce expression
"N#CC(C#N)=NNc1cccc(Cl)c1 [CCCP, carbonyl cyanide m-chlorophenylhydrazone]",fluorescent intensity,"HEK293 cells; confocal micrograph, versus untreated cells",significantly reduced
same,Mean fluorescent intensity,HEK293 cells; flow cytometer,5.4
D-Try^34 NPY,Slc25a10 expression,S1c25a10 gene; [1],3.0
same,Slc25a10 expression,S1c25a10 gene; pair feeding (PF) mice,1.9
"melanin-concentrating hormone (DFDMLRCMLGRVYRPCWQV; ends and bridges not checked; cysteine pairing not given here; UniProt P56942 147-165, looked up) [MCH, MCH infused i.c.v. to induce obesity in mice]",Slc25a10 expression,S1c25a10 gene; [1],1.7
same,Slc25a10 expression,S1c25a10 gene; pair feeding (PF) mice,2.4
